Values belong to the molecule of their own block, whether it stands above or below them.
What was measured:
[1] = Mesophase behaviour by polarized optical microscopy (POM); type: physicochemical; settings: for POM observation on exposure to water: 25° C. and 37° C.; for Appearance of the Lyotropic phase at excess water (25° C.-50° C.): POM, equilibration 1 h
Protocol: Polarized Optical Microscopy (POM): Samples used for Polarized Optical Microscopy (POM) were prepared by placing a small amount of prodrug amphiphile on a microscope slide and covered with a cover slip. Water was placed on the edges of the cover slip and allowed to flow into the sample by capillary action. The microscope slide was placed in a Linkam PE94 hot stage (Linkam Scientific Instruments Ltd. Surrey, England) and heated at 3° C./min between room temperature and 50° C. […] Images were captured with a Nikon DS-Ri-1 camera. All images were taken at 100× magnification.
The formation of lyotropic mesophases is based on the interaction of the prodrug amphiphile with water. Polarized optical microscopy was used to study the liquid crystalline or crystalline structures of the prodrug amphiphiles. This method was used as a preliminary and qualitative investigation to observe the morphological changes of the amphiphile as well as to predict the structural changes of the mesophases which may form upon hydration with water. For each prodrug amphiphile, a small amount of the neat and dry sample was placed on a microscope slide and covered with a cover slip. Water was placed on the edges of the cover slip to allow to flow into the sample by capillary action. Images were captured at 25° C. before and after the addition of water and at 37° C. after exposure to water. 37° C. was selected due to its physiological relevance. […]

[2] = SAXS of neat and hydrated amphiphiles (phase, lattice parameter); type: physicochemical; settings: for lattice parameter, hydrated / phase, hydrated: excess water
Protocol: SAXS analyses of the bulk and lyotropic phases of the amphiphiles were performed on a Bruker NanoSTAR laboratory SAXS instrument (Brucker AXS, Kalsruhe, Germany).
(§1) The equilibrated lyotropic phases were placed into a demountable button sample cell. For the analysis of the dispersions, a multi-capillary holder was used. Button cells and capillary holder interchangeably fit into a block setup that was temperature-controlled with a Peltier heater-cooler system. 2D scattering images were radially averaged to conventional 1 D scattering plots and as a function of the q value (Å^−1) where q is the length of the scattering vector which was calculated using the formula q=(4π/λ) sin(θ/2), where λ is the wavelength and θ is the scattering angle.
(§2) Small angle X-ray scattering patterns of emulsions and liposomes display large broad peaks while liquid crystalline phases of highly ordered nanostructured particles such as cubosomes and hexosomes display distinct sharp peaks. The relative positions of the peaks (“spacing”) allows for the elucidation of the symmetry of the structure. The interplanar distance (d) between two reflecting planes may be calculated using the formula d=(2π)/q, where q is the absolute position of the peak. This, in turn allows for the calculation of the lattice parameter (a), the size of the unit cell, to be calculated.

[3] = SAXS / synchrotron SAXS of dispersed nanoparticles; type: physicochemical; settings: dispersion with PEG stabiliser
Protocol: as §1, §2
The CP prodrug amphiphiles were hydrated with warm PBS containing 10-30% PEG4K-oleoyl or other steric stabilisers such F108 or F127 and sonicated in a sonicator bath and using a probe sonicator resulting in the lipid emulsion. The nanoparticles were then processed through a polycarbonate membrane (3×400 nm, 3×200 nm and 3×100 nm) using an extruder (Avestin, LipoFast LF-50) in order to ensure homogenous sizing. The CP prodrug-phospholipid/cholesterol nanoparticles were prepared by mixing the CP amphiphiles, DMPC and cholesterol in ethanol, followed by vigorous mixing and gentle evaporation under reduced pressure resulting in a thin film. The thin film was then hydrated with warm PBS containing 10-30% of PEG4K-oleoy solution, sonicated in a sonicator bath and using a probe sonicator resulting in the lipid emulsion. The nanoparticles were then processed through a polycarbonate membrane (3×400, 3×200 nm, 9×100 nm) using an extruder (Avestin, LipoFast LF-50) in order to ensure homogenous sizing between 20-200 nm.

[4] = Reduction kinetics of Pt (IV) prodrug nanoparticles with ascorbic acid (LC-MS); type: in vitro ADME
Protocol: The reducing agent was applied at concentrations corresponding to those found in the living cells' environment, e.g. 1 mM ascorbic acid or 2 mM glutathione (GSH).
Dispersed nanoparticles of Pt (IV) prodrug amphiphiles were mixed with GSH, ascorbic acid or their combination. The ratios of the reducing agents to platinum prodrugs were 10:1 or 50:1 for ascorbic acid and 20:1 for GSH. The reduction kinetics was analysed by LC-MS via monitoring the peaks related to each prodrug amphiphile. The prodrugs were detected by negative ions optimised for each platinum amphiphile. The reduction kinetics was plotted as the percentage of the area under the peak of Pt (IV)-prodrug compared to the peak before the addition of the reducing agent against the time of incubation. At each time point 10 μl of a sample withdrawn from the reaction solution was injected directly into a Phenomenex C8 150 mm×2 mm 5 μm Luna column (Phenomenex, Australia). A 100% Methanol solution was used as the mobile phase with a flow rate of 0.5 ml/min for 8 minutes. The sample after the column separation was eluted to the ESI source. […] The samples were well maintained at a temperature of 37° C. during the entire measurement by incubation in the temperature-controlled auto-sampler. Data was acquired and processed with Xcalibur Quan chromatography software.

Molecule: CCCCC/C=C\C/C=C\CCCCCCCC(=O)[O][Pt]([Cl])([Cl])[O]C(=O)CCCCCCC/C=C\C/C=C\CCCCC.N.N [CP-bis (linoleoyl), cis,cis,trans-[PtCl2(NH3)2(linoleoyl)2]]
POM observation on exposure to water [1]: amenable to swelling to some extent
Appearance of the Lyotropic phase at excess water (25° C.-50° C.) [1]: No distinct mesophases
lattice parameter, hydrated ([2]; temperature not given): 33.5 ± 0.5 Å
phase, hydrated ([2]; temperature not given): LC1
lattice parameter, neat non-hydrated ([2]; temperature not given): 33.5 ± 0.5 Å
phase, neat non-hydrated ([2]; temperature not given): LC1

Molecule: CCCCCCCCCCCC(=O)[O][Pt]([Cl])([Cl])[O]C(=O)CCCCCCCCCCC.N.N [CP-bis (lauroyl), cis,cis,trans-[PtCl2(NH3)2(lauroyl)2]]
POM observation on exposure to water [1]: no observable difference after hydration with water at either 25 or 37 °C

Molecule: CC(C)CCCC(C)CCCC(C)CCCC(C)CC(=O)[O][Pt]([NH2])([NH2])([Cl])([Cl])[O]C(=O)CC(C)CCCC(C)CCCC(C)CCCC(C)C (mixture of isomers) [CP-bis (phytanoyl), cis,cis,trans-[PtCl2(NH3)2(phytanoyl)2]]
POM observation on exposure to water [1]: amenable to swelling to some extent
Appearance of the Lyotropic phase at excess water (25° C.-50° C.) [1]: No distinct mesophases
lattice parameter, neat non-hydrated ([2]; 25° C.): 37.3 ± 0.5 Å
phase, neat non-hydrated ([2]; 25° C.): LC1
lattice parameter, neat non-hydrated ([2]; 37° C.): 37.3 ± 0.5 Å
phase, neat non-hydrated ([2]; 37° C.): LC1
lattice parameter, hydrated ([2]; 25° C.): 37.3 ± 0.5 Å
phase, hydrated ([2]; 25° C.): LC1
lattice parameter, hydrated ([2]; 37° C.): 39.8 ± 0.5 Å
phase, hydrated ([2]; 37° C.): LC1

lattice parameter of dispersed nanoparticles [3]: 44.28±0.5 Å
structure of dispersed nanoparticles [3]: lamellar dispersed nanoparticle
lattice parameter, hydrated ([2]; 25° C.): 43.93 ± 0.5 Å
lattice parameter, neat non-hydrated ([2]; temperature not given): 40.80 ± 0.5 Å
Molecule: CCCCCCCC/C=C\CCCCCCCC(=O)OCCOCCOCCOC(=O)[O][Pt]([NH2])([NH2])([Cl])([Cl])[O]C(=O)OCCOCCOCCOC(=O)CCCCCCC/C=C\CCCCCCCC [CP-bis (PEG3-oleoyl), cis,cis,trans-(PtCl2(-triethyleneglycolyl-oleoyl)2)]
POM observation on exposure to water [1]: formation of a lamellar liquid crystalline structures

Molecule: cis, trans [Oxaliplatin-bis (myristoyl), cis, trans [Pt ((1R, 2R)-1,2 cyclohexanediamine-N,N′) (oxalate(2-)O,O′) (myristoyl)2]]
reduction rate compared with carboplatin prodrug ([4]; 1 mM ascorbic acid, 0.1 mM prodrug in DMPC/cholesterol nanoparticles): higher rate up to 3 h compared with carboplatin prodrug

Molecule: CCCCCCCCCCCCCCCC(=O)[O][Pt]([Cl])([Cl])[O]C(=O)CCCCCCCCCCCCCCC.N.N [CP-bis (palmitoyl), cis,cis,trans-[PtCl2(NH3)2(palmitoyl)2]]
POM observation on exposure to water [1]: amenable to swelling to some extent

lattice parameter of dispersed nanoparticles [3]: 47.62±0.5 Å
structure of dispersed nanoparticles [3]: multilamellar dispersed nanoparticle
lattice parameter, hydrated ([2]; 25° C.): 46.54 ± 0.5 Å
lattice parameter, hydrated ([2]; 37° C.): 46.33 ± 0.5 Å
lattice parameter, neat non-hydrated ([2]; temperature not given): 46.20 ± 0.5 Å
Molecule: CCCCCCCC/C=C\CCCCCCCC(=O)OCCOCCOCCNC(=O)CCC(=O)[O][Pt]([NH2])([NH2])([Cl])([Cl])[O]C(=O)CCC(=O)NCCOCCOCCOC(=O)CCCCCCC/C=C\CCCCCCCC [CP-bis(suc-amino-PEG3-oleoyl), cis,cis,trans-(PtCl2(NH3)2-(succinoyl-triethylene glycolyl-oleoyl)2)]

Molecule: CCCCCCCCCCCCCC(=O)OCCOCCOCCNC(=O)CCC(=O)[O][Pt]1([O]C(=O)CCC(=O)NCCOCCOCCOC(=O)CCCCCCCCCCCCC)[O]C(=O)C2(CCC2)C(=O)[O]1.N.N [Carboplatin-bis (suc-PEG3-myristoyl), cis, [Pt (Diamine) (1,1-cyclobutanedicarboxylato) (succinylamide-triethyleneglycol-myristoyl)2]]
Appearance of the Lyotropic phase at excess water (25° C.-50° C.) [1]: Lamellar

Molecule: CCCCCCCCCCCCCC(=O)[O][Pt]([Cl])([Cl])[O]C(=O)CCCCCCCCCCCCC.N.N [CP-bis (myristoyl), cis,cis,trans-[PtCl2(NH3)2(myristoyl)2]]
POM observation on exposure to water [1]: amenable to swelling to some extent

Molecule: CCCCCCCC/C=C\CCCCCCCC(=O)[O][Pt]([NH2])([NH2])([Cl])([Cl])[O]C(=O)CCCCCCC/C=C\CCCCCCCC [CP-bis (oleoyl), cis,cis,trans-[PtCl2(NH3)2(oleoyl)2]]
POM observation on exposure to water [1]: amenable to swelling to some extent
Appearance of the Lyotropic phase at excess water (25° C.-50° C.) [1]: No distinct mesophases
lattice parameter, hydrated ([2]; temperature not given): 34.2 ± 0.5 Å
phase, hydrated ([2]; temperature not given): LC1
lattice parameter, neat non-hydrated ([2]; temperature not given): 34.2 ± 0.5 Å
phase, neat non-hydrated ([2]; temperature not given): LC1

Molecule: CCCCCCCCCCCCCC(=O)[O][Pt]1([NH2])([NH2])([O]C(=O)CCCCCCCCCCCCC)[O]C(=O)C2(CCC2)C(=O)[O]1 [Carboplatin-bis (myristoyl), cis, trans [(Diamine) (1,1-cyclobutanedicarboxylato) (bis myristoyl)]]
Appearance of the Lyotropic phase at excess water (25° C.-50° C.) [1]: No distinct mesophase
maximum reduction ([4]; ascorbic acid as reducing agent, up to 24 h): 80%
